# Reference: patent US11851391B2, “Antifungal compounds and methods of forming the same” (University of Kentucky Research Foundation, priority 2018, dated 2023)
# Read-outs that look alike come from different tables or passages of the source.
# Assays:
# [1] = test system: Candida albicans ATCC 10231(R) (strain A); assay: MIC determination, in vitro antifungal assay (CLSI M27-A3); format: cell-based; conditions: MIC-0 (no visible growth), 48 h at 35° C.
# Description: (§1) The activity of N,N′-diaryl-bishydrazones 7-22 was tested against a panel of seven strains of C. albicans: ATCC 10231(R) (A), ATCC 64124(R) (B), ATCC MYA-2876(S) (C), ATCC 90819(R) (D), ATCC MYA-2310(S) (E), ATCC MYA-1237(R) (F), and ATCC MYA-1003(R) (G). The activity of these bishydrazones 7-22 was also explored against a panel of three non-albicans Candida strains: C. glabrata ATCC 2001 (H), C. krusei ATCC 6258 (I), and C. parapsilosis ATCC 22019 (J). Finally, the activity of these bishydrazones 7-22 was explored against three Aspergillus strains: A. flavus ATCC MYA-3631 (K), A. nidulans ATCC 38163 (L), and A. terreus ATCC MYA-3633 (M).
# (§2) Candida albicans ATCC 10231 (A), C. albicans ATCC 64124 (B), and C. albicans ATCC MYA-2876 (C) were kindly provided by Dr. Jon Y. Takemoto (Utah State University, Logan, UT, USA). C. albicans ATCC 90819 (D), C. albicans ATCC MYA-2310 (E), C. albicans ATCC MYA-1237 (F), C. albicans ATCC MYA-1003 (G), Candida glabrata ATCC 2001 (H), Candida krusei ATCC 6258 (I), Candida parapsilosis ATCC 22019 (J), Aspergillus flavus ATCC MYA-3631 (K), and Aspergillus terreus ATCC MYA-3633 (M) were obtained from the American Type Culture Collection (ATCC; Manassas, VA, USA). Aspergillus nidulans ATCC 38163 (L) was received from Dr. Jon S. Thorson (University of Kentucky, Lexington, KY, USA). Filamentous fungi and yeasts were cultivated at 35° C. in RPMI 1640 medium (with 1-glutamine, without sodium biocarbonate, Sigma-Aldrich, St. Louis, MO) buffered to a pH of 7.0 with 0.165 M morpholinepropanesulfonic acid (MOPS) buffer (Sigma-Aldrich).
# (§3) The MIC values of compounds 7a-24c against yeast cells (strains A-J) were determined in 96-well plates as described in the CLSI document M27-A3 with minor modifications. A single colony of freshly prepared yeast cells was used to inoculate 5 mL of yeast extract peptone dextrose (YPD) broth prior to incubation overnight with shaking at 200 rpm at 35° C. From the actively growing yeast culture, 100 μL were then transferred to 900 μL of sterile ddH2O and re-adjusted to achieve OD600 of 0.12 (˜1×10^6 CFU/mL). The cell suspension was further diluted to achieve 2-4×10^3 CFU/mL in RPMI 1640 medium. […] The final concentration of DMSO was ensured to be <1.25% in all experiments. The MIC values for compounds 7a-24c and CAS were defined as the minimum drug concentration that yielded complete inhibition (also known as MIC-0).
# [2] = test system: Candida parapsilosis ATCC 22019 (strain J); assay: as above; format: cell-based; conditions: strain J, MIC-0, 48 h at 35° C.
# Description: as §1, §2, §3
# [3] = test system: C. albicans ATCC 64124(R) (strain B); assay: as above; format: cell-based, Candida albicans; conditions: Candida albicans, ATCC64124, 48 h, strain B; MIC-0; 48 h at 35° C.; read-out: MIC
# Description: as §1, §2, §3
# [4] = test system: C. albicans ATCC 90819(R) (strain D); assay: as above; format: cell-based, Candida albicans; conditions: Candida albicans, ATCC90819, 48 h, MIC-0, 48 h at 35° C., read-out: MIC
# Description: as §1, §2, §3
# [5] = test system: C. albicans ATCC MYA-1237(R) (strain F); assay: as above; format: cell-based, Candida albicans; conditions: Candida albicans, 48 h, MIC-0, 48 h at 35° C., read-out: MIC
# Description: as §1, §2, §3
# [6] = test system: C. albicans ATCC MYA-2310(S) (strain E); assay: as above; format: cell-based, Candida albicans; conditions: Candida albicans, 48 h, MIC-0, 48 h at 35° C., read-out: MIC
# Description: as §1, §2, §3
# [7] = test system: C. albicans ATCC MYA-1003(R) (strain G); assay: as above; format: cell-based, Candida albicans; conditions: Candida albicans, 48 h, MIC-0, 48 h at 35° C., read-out: MIC
# Description: as §1, §2
# (§4) A single colony of freshly prepared yeast cells was used to inoculate 5 mL of yeast extract peptone dextrose (YPD) broth prior to incubation overnight with shaking at 200 rpm at 35° C. From the actively growing yeast culture, 100 μL were then transferred to 900 μL of sterile ddH2O and re-adjusted to achieve OD600 of 0.12 (˜1×10^6 CFU/mL). The cell suspension was further diluted to achieve 2-4×10^3 CFU/mL in RPMI 1640 medium. […] The final concentration of DMSO was ensured to be <1.25% in all experiments.
# [8] = test system: C. albicans ATCC MYA-2876(S) (strain C); assay: as above; format: cell-based, Candida albicans; conditions: Candida albicans, 48 h, MIC-0, 48 h at 35° C., read-out: MIC
# Description: as §1, §2, §4
# [9] = test system: Candida glabrata ATCC 2001 (strain H); assay: as above; format: cell-based; conditions: Nakaseomyces glabratus, ATCC2001, 48 h, MIC-0, 48 h at 35° C., read-out: MIC
# Description: as §1, §2, §4
# [10] = test system: Candida krusei ATCC 6258 (strain I); assay: as above; format: cell-based; conditions: MIC-0, 48 h at 35° C.
# Description: as §1, §2, §4
# [11] = test system: Aspergillus flavus ATCC MYA-3631 (strain K); assay: MIC determination against filamentous fungi (CLSI M38-A2); format: cell-based; conditions: MIC-0, 48 h at 35° C.
# Description: as §1, §2
# (§5) Similarly, the MIC values of compounds 7a-24c, as well as that of the two control drugs against filamentous fungi (strains K-M) were determined as previously described in CLSI document M38-A2. Spores were harvested from sporulating cultures growing on potato dextrose agar (PDA) by filtration through sterile glass wool and enumerated by using a hemocytometer to obtain the desired inoculum size. […] Spore suspensions were added to the wells to afford a final concentration of 5×10^5 CFU/mL. The plates were incubated at 35° C. for 48 h. The MIC values of compounds 7a-24c and CAS against filamentous fungi were based on the complete inhibition of growth when compared to the growth control (MIC-0). […] Each test was performed in triplicate.
# [12] = test system: Aspergillus nidulans ATCC 38163 (strain L); assay: as above; format: cell-based; conditions: MIC-0, 48 h at 35° C.
# Description: as §1, §2, §5
# [13] = test system: Aspergillus terreus ATCC MYA-3633 (strain M); assay: as above; format: cell-based; conditions: Aspergillus terreus, 48 h, MIC-0, 48 h at 35° C., read-out: MIC
# Description: as §1, §2, §5
# [14] = test system: various yeast strains and filamentous fungi (strains A-M); assay: Antifungal activity over the whole panel (summary of MIC data); format: cell-based, Candida and Aspergillus strains; conditions: for antifungal activity (in words): over the fungal strains tested, based on MIC data of Table 1
# Description: as §1, §3, §5
# [15] = test system: murine red blood cells (mRBCs); conditions: for Percentage of hemolysis (±SDEV): mouse, 60 min
# Description: Thus, the hemolytic activity for these bishydrazones was investigated against murine red blood cells (mRBCs).
# Murine red blood cells (mRBCs) were prepared by suspending 1 mL of murine blood in 3 mL of PBS prior to centrifugation at 1,000 rpm for 5 min. The mRBCs were washed four times in PBS and resuspended in the same buffer to a final concentration of 10^7 mRBC/mL. […] The tubes were incubated at 37° C. for 60 min. […] Eppendorf tubes containing 200 μL of ddH2O and 2 μL of 1% v/v Triton™ X-100 served as negative (blank) and positive controls, respectively. The percentage of hemolysis was calculated using the following equation: % hemolysis=[(absorbance of sample)−(absorbance of blank)]×100/(absorbance of positive control).
# [16] = Candida albicans, ATCC10231, 48 h, read-out: MIC
# [17] = Lodderomyces parapsilosis, ATCC22019, 48 h, read-out: MIC
# [18] = Pichia kudriavzevii, ATCC6258, 48 h, read-out: MIC
# [19] = Aspergillus flavus, 48 h, read-out: MIC
# [20] = Aspergillus nidulans, ATCC38163, 48 h, read-out: MIC
"MIC [1, 16] [µg/mL]","MIC [2, 17] [µg/mL]",MIC [3] [µg/mL],MIC [4] [µg/mL],MIC [5] [µg/mL],MIC [6] [µg/mL],MIC [7] [µg/mL],MIC [8] [µg/mL],MIC [9] [µg/mL],"MIC [10, 18] [µg/mL]","MIC [11, 19] [µg/mL]","MIC [12, 20] [µg/mL]",MIC [13] [µg/mL],SMILES,antifungal activity (in words) [14],hemolytic activity (in words) [15],Percentage of hemolysis (±SDEV) ([15]; 0.975 μg/mL) [%],Percentage of hemolysis (±SDEV) ([15]; 1.95 μg/mL) [%],Percentage of hemolysis (±SDEV) ([15]; 3.9 μg/mL) [%],Percentage of hemolysis (±SDEV) ([15]; 7.8 μg/mL) [%],Percentage of hemolysis (±SDEV) ([15]; 15.6 μg/mL) [%],also measured
> 31.3,31.3,> 31.3,> 31.3,> 31.3,> 31.3,> 31.3,> 31.3,> 31.3,31.3,> 31.3,> 31.3,31.3,Clc1ccc(N/N=C/c2ccc(-c3ccc(/C=N/Nc4ccc(Cl)cc4)cc3)cc2)cc1 [Compound 18b],inactive,–,–,–,–,–,–,–
> 31.3,31.3,> 31.3,> 31.3,> 31.3,> 31.3,> 31.3,> 31.3,> 31.3,> 31.3,> 31.3,> 31.3,> 31.3,Brc1ccc(N/N=C/c2ccc(-c3ccc(/C=N/Nc4ccc(Br)cc4)cc3)cc2)cc1 [Compound 19b],inactive,–,–,–,–,–,–,–
7.8 to 15.6,3.9,> 31.3,> 31.3,> 31.3,> 31.3,> 31.3,> 31.3,> 31.3,7.8 to 15.6,31.3,> 31.3,> 31.3,Fc1cccc(N/N=C/c2ccc(-c3ccc(/C=N/Nc4cccc(F)c4)cc3)cc2)c1 [Compound 12b],–,lack of hemolytic activity,0.8 ± 0.9,0,3.2 ± 3.0,2.6 ± 1.6,7.7 ± 3.1,MIC [1]: 7.8 µg/mL; MIC [2]: 3.9 µg/mL; MIC [10]: 15.6 µg/mL; Percentage of hemolysis (±SDEV) ([15]; 31.3 μg/mL): 10.3 ± 0.2%
15.6,> 31.3,> 31.3,> 31.3,> 31.3,> 31.3,> 31.3,> 31.3,> 31.3,> 31.3,> 31.3,> 31.3,> 31.3,Fc1cc(F)cc(N/N=C/c2ccc(-c3ccc(/C=N/Nc4cc(F)cc(F)c4)cc3)cc2)c1 [Compound 22b],no activity,–,–,–,–,–,–,"MIC [1]: 15.6 µg/mL; MIC ([14]; against all fungal strains tested, with named exceptions, read-out: antifungal activity class based on MIC values): ≥ 31.3 µg/mL"
7.8,> 31.3,> 31.3,31.3,> 31.3,> 31.3,> 31.3,> 31.3,> 31.3,> 31.3,1.95 to 3.9,1.95 to 3.9,15.6,C(=N\Nc1ccccc1)/c1ccc(-c2ccc(/C=N/Nc3ccccc3)cc2)cc1 [Compound 7b],–,lack of hemolytic activity,0.1 ± 0.1,3.7 ± 1.6,3.4 ± 1.7,2.9 ± 1.1,14.1 ± 6.0,MIC [11]: 3.9 µg/mL; MIC [12]: 1.95 µg/mL; Percentage of hemolysis (±SDEV) ([15]; 31.3 μg/mL): 10.8 ± 0.6%
1.95 to 3.9,1.95,3.9,> 31.3,7.8,3.9,> 31.3,3.9,3.9,1.95,> 31.3,7.8,7.8,N=C(N)N/N=C/c1ccc(-c2cccc(/C=N/NC(=N)N)c2)cc1 [Compound 24a],–,lack of hemolytic activity,0,1.1 ± 2.2,1.2 ± 1.7,2.3 ± 0.5,3.8 ± 0.5,Percentage of hemolysis (±SDEV) ([15]; 31.3 μg/mL): 3.8 ± 1.7%
